# Experimental data taken from patent publication US6340708B1, “Pharmaceutical composition comprising at least one aminopeptidase A inhibitor” (Institut National de la Sante et de la Recherche Medicale …, priority 1998, dated 2002).
# “Also recorded” adds a separate entry of the source.
# Key:
# aminopeptidase A (APA) = assay: Measurement of APA activity in vitro (GluβNa hydrolysis, purified APA); conditions: APN versus APA
# From the text: In vitro, in the presence of calcium ions, APA hydrolyses α-L-glutamyl-β-naphthylamide (gluβNa) to glutamate and β-naphthylamine (βNa). A diazotation reaction in acid medium makes it possible to reveal the β-naphthylamine by formation of a violet-coloured complex: spectrophotometric measurement then makes it possible to know the amount of complex formed and, by reference to a standard curve produced with increasing concentrations of β-naphthylamine, to deduce therefrom the enzymatic activity of the sample.
# The GluβNa substrate and the β-naphthylamine (Bachem) are dissolved in DMSO (dimethyl sulphoxide) and 0.1 N HCl respectively, and conserved at −20° C. at a concentration of 10^−2 M. The diazotation reaction is carried out in the presence of sodium nitrite (87 mM), ammonium sulphamate (130 mM) and N-(1-naphthyl)-ethylenediamine dihydrochloride (23 mM).
# The reaction takes place at pH 7.4 in 50 mM tris-HCl buffer, in the presence of calcium (4 mM CaCl2); the sample to be assayed is incubated at 37° C. in the presence of substrate (200 μM GluβNa) and in the presence or absence of various concentrations of the inhibitor to be tested, in a final volume of 100 μl. The reaction is stopped by adding 10 μl of 3N HCl. A standard curve of β-naphthylamine in acid medium (add 10 μl of 0.1 N HCl) is produced in parallel.
# The following are added to each well: […]
# [1] = test system: arterial pressure of WKY normotensive and SHR hypertensive rats; assay: Mean arterial pressure in anaesthetized WKY and SHR rats after i.c.v. injection; assay type: in vivo, rat; conditions: for maximum hypotensive effect (change in arterial pressure): 100 μg i.c.v.; for antagonist effect on PC18-induced increase in arterial pressure: Losartan 10 μg pretreatment, PC18 60 μg
# From the text: The rats used are male Sprague-Dawley rats weighing 200 to 250 grams; some of them are 11-week-old rats (SHR). Wistar Kyoto normotensive rats are also used as controls. The animals are kept for one week with alternating 12-hour periods of light and half-light, and have water and food available ad libitum. For each experiment, the SHR and WKY rats are weighed, and their arterial pressure and cardiac rhythm are continuously recorded via an invasive route after inserting a catheter (PE 50) into the femoral artery. The catheter is linked to a pressure sensor (COBE) and connected to a signal processor which is linked to an amplifier. The computer system comprises a MacLab interface system and application software (Chart and Scope) which allows data acquisition and calculation through a Macintosh computer.
# These experiments are carried out in Wistar Kyoto (WKY) normotensive rats or spontaneously hypertensive rats (SHR 12 weeks old).
# The animals are anaesthetized with Inactin (5-ethyl-2-(1′-methylpropyl)-2-thiobarbita), this being an anaesthetic which is used regularly in renal or cardiovascular physiology experiments. Its properties are to cause a very slight drop in arterial pressure, which is visible only in SHR rats, and especially to allow a stable basal arterial pressure to be maintained throughout the experiment.
# The mean arterial pressure (systolic+diastolic) is measured continuously, via an invasive route, after catheterizing the femoral artery. The peptides or the inhibitors, are injected via the intracerebroventricular (i.c.v.) route with the aid of a cannula positioned in the lateral ventricle under stereotaxy (Stereotaxic Atlas; G. Paxinos and C. Watson, Academic Press, 1986).
# The experiments are carried out on groups of 4 to 20 individually analysed animals. The results on batches of control animals and treated animals were compared with the aid of an analysis of variance (ANOVA), followed by an unpaired Student's test.
# An injection of angiotensin II is carried out combined, where appropriate, with a consecutive injection of EC33.
# In accordance with the protocol described in Example 3, AngIII (10 ng) in the presence of 60 μg of PC18 is injected into SHR rats. As a control test, an injection of PC18 alone is carried out.
# [2] = test system: formation of angiotensin III from [3H]AngII in hypothalamus; assay: In vivo metabolism of tritiated AngII/AngIII in murine hypothalamus after i.c.v. injection; set-up: species or system mouse; conditions: mice
# Procedure: Male Swiss mice (available from the IFFA Credo Institute) weighing 18 to 20 grams are maintained under artificial light (12 hours in bright phase - 12 hours in half-light) and have food and water available ad libitum. The experiments are carried out between 9 o'clock and 11 o'clock in the morning. The drugs are administered into the lateral ventricle by the intracerebroventricular route (i.c.v) at an amount of 5 μl per mouse according to the method of Haley and McCormick (Br. J. Pharmacol. 12, 12-15).
# For each experiment, six to eight mice are used for each of the conditions. A mixture of 2×10^6 cpm of [^3H]Ang II and 30 μg of unlabelled Ang II is administered in a 5 μl volume, alone or together with EC33 (30 μg). The inhibitors are dissolved in an isotonic saline solution adjusted to a pH of 7.4 with 0.01 M NaOH solution. At various times after the injection, the mice are decapitated, their brains are removed and their hypothalami are dissected on ice and homogenized by sonication (ultrasons, Anemasse, France) in 10 volumes of a 0.1 M HCl solution cooled in ice. […]
# The respective amounts of labelled angiotensins II and III present in the hypothalamus are determined according to the protocol of Ledwith et al. (Anal. Biochem. 213, 349-355). […] The F1 and F2 fractions are then analysed by HPLC to determine their respective content of tritiated angiotensin II and tritiated angiotensin III.
# With the aim of an HPLC analysis, the F1 and F2 fractions are initially concentrated by extraction on a C18 Sep-pak® Cartridges device (Waters). […] After elution on Sep-pak®, the respective F1 and F2 fractions are freeze-dried, dissolved in 0.2 ml of a 0.01 M acetic acid solution, with 20 ng of angiotensin II and of angiotensin III as internal standard, and analysed by HPLC.
# The HPLC analysis is carried out using an H Hypersil ODS®-3 μm reverse phase column (Shandon, Pittsburgh) heated to 45° C., then with an isocratic elution at a flow rate of 0.6 ml per minute. […] Their radioactivity content is estimated with a beta counter. […]
# [3] = test system: arterial pressure of conscious SHR rats; assay: Arterial pressure in conscious SHR rats after i.c.v. or i.v. injection; assay type: in vivo, rat
# Procedure: These experiments are carried out in a 12-week-old SHR rats (300-350 g). During the operation, the animals are anaesthetized for a limited time (3 hours) with sodium pentobarbital (50 mg/kg intraperitoneal, Laboratoire Sentravet, Plancoët, France) The experiments are carried out a minimum of 24 hours after the operation.
# The injections are carried out with the aid of a cannula positioned in the lateral ventricle under stereotaxy, and the arterial pressure is measured continuously, via an invasive route, after catheterizing the femoral artery. The catheter is exteriorized at the level of the animal's neck, and is linked to a fixing system which allows the rat to move around freely in its cage.
# A first catheter is positioned in the femoral vein in order to carry out the injections, a second catheter is introduced into the femoral artery in order to be able to measure arterial pressure continuously. Both catheters are then exteriorized as indicated above.
molecule,measurement,setting,value
"CSCC[C@H](N)CS [PC18, methioninethiol]",times less active on APA than on APN,aminopeptidase A (APA),1000
same,effect on the pressure effect of AngIII,"[1]; AngIII 10 ng with PC18 60 μg i.c.v., SHR rats",potentiation
same,increase in arterial pressure,"[1]; PC18 60 μg i.c.v., normotensive rats",+10 mmHg
same,duration of pressure effect,"[1]; PC18 alone 60 μg i.c.v., SHR rats",approximately 12 minutes
"angiotensin II (DRVYIHPF; Angiotensin-2; UniProt P01019 25-32, looked up) [ANGII, angiotensin II peptide available from Amersham or Sigma]",maximum magnitude of increase in arterial pressure,"[1]; AngII 10 ng i.c.v., WKY and SHR rats",approximately 10 mmHg
"N[C@H](CS)CCS(=O)(=O)[O-].[Na+] [EC33, sodium (S)-3-amino-4-mercaptobutylsulphonate]",formation of tritiated AngIII in hypothalamus,[2]; EC33 30 μg i.c.v.,immediately blocked; also recorded: totally blocks
same,half-life of [3H]AngII in hypothalamus,[2]; EC33 30 μg i.c.v. with [3H]AngII and 30 μg AngII,5.38 ± 0.21 min
same,"[3H]AngII content in hypothalamus, times the content of the control test","[2]; EC33 30 μg i.c.v., between 0.5 and 7 minutes",approximately 11
same,decrease in arterial pressure,[3]; 100 μg i.c.v.,−26 mmHg
same,duration of hypotensive effect,[3]; 100 μg i.c.v.,40 min
same,hypotensive effect,[3]; 45 mg/kg i.v.,does not induce a significant hypotensive effect
same,effect on the AngII-induced increase in arterial pressure,[1]; AngII 10 ng with EC33 100 μg i.c.v.,completely eliminated
same,modification of the effect on pressure of AngIII,[1]; AngIII 30 ng with EC33 i.c.v.,ineffectiveness
same,maximum hypotensive effect (change in arterial pressure),[1]; hypertensive (SHR) anaesthetized rats,−28 mmHg
same,maximum hypotensive effect (change in arterial pressure),[1]; normotensive (WKY) anaesthetized rats,−22 mmHg
CCCCc1nc(Cl)c(CO)n1Cc1ccc(-c2ccccc2-c2nn[nH]n2)cc1 [Losartan],antagonist effect on PC18-induced increase in arterial pressure,[1]; hypertensive rats,about 52%
same,antagonist effect on PC18-induced increase in arterial pressure,[1]; normotensive rats,about 85%
